Laboratory results taken from publication PMC5439695 (PLoS ONE, 2017).
Where a name gives a salt, the structure may show the parent alone. Read-outs that look alike come from different tables or passages of the source.

Key:
[1] = system: estrogen receptor (ER); conditions: cited from earlier work; for AUC score in Judson 2015: ER antagonist, ToxCast chemicals only, ref Judson 2015
[2] = system: HepG2 cells; assay: CellTox Green Cytotoxicity Assay (flor) in HepG2, HepG2[flor]; assay type: cell-based, human; conditions: HepG2 flor; for hepg2_flor_bin: kinetics bin; for hepg2_flor_emax_0 / hepg2_flor_pod_0 / hepg2_flor_wauc_0: time point 0;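 on hepg2 flor emax 0: percent activity versus DMSO-only wells with baseline rescaled to 0%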;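 on hepg2 flor emax 40: percent activity versus DMSO-only wells with baseline rescaled to 0%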
[3] = system: HEK293 cells; conditions: HEK293 glo; for hek293_glo_bin: kinetics bin; for hek293_glo_emax_0 / hek293_glo_pod_0 / hek293_glo_wauc_0: time point 0
[4] = system: HEK293 cells; conditions: HEK293 flor; for hek293_flor_bin: kinetics bin; for hek293_flor_emax_0 / hek293_flor_pod_0 / hek293_flor_wauc_0: time point 0; for hek293_flor_emax_8 / hek293_flor_pod_8 / hek293_flor_wauc_8: time point 8
[5] = system: HepG2 cells; conditions: HepG2 glo; for hepg2_glo_bin: kinetics bin; for hepg2_glo_emax_0 / hepg2_glo_pod_0 / hepg2_glo_wauc_0: time point 0
[6] = system: HEK293 and HepG2 cell lines
[7] = time point 8, given as negative log-scale values
[8] = time point 16, given as negative log-scale values
[9] = time point 24, given as negative log-scale values
[10] = time point 32, given as negative log-scale values
[11] = time point 40, given as negative log-scale values

## CC(C)C1CCC(Cc2ccc(Cl)cc2)C1(O)Cn1cncn1 (centres unmarked) [Ipconazole]
[1]
  AUC score in Judson 2015: 0.0166

## O=C1C2CC=CCC2C(=O)N1SC(Cl)(Cl)Cl (centres unmarked) [Captan]
[1]
  AUC score in Judson 2015: 0

## CCCCCCCCCCCCOC(=O)c1cc(O)c(O)c(O)c1 [dodecyl gallate]
[1]
  AUC score in Judson 2015: 0.0773
[1]; pathway-level model using all Tox21/ToxCast ER assays of 1812 ToxCast chemicals
  ER antagonist AUC score: higher than 0.01

## C[C@@]1(c2ccc(Oc3ccccc3)cc2)OC(=O)N(Nc2ccccc2)C1=O (racemic) [Famoxadone]
[1]
  AUC score in Judson 2015: 0.000714

## OC(c1ccc(Cl)cc1)(c1cncnc1)c1ccccc1Cl (centres unmarked) [Fenarimol]
[1]
  AUC score in Judson 2015: 0.000907

## CCCCC(O)(Cn1cncn1)c1ccc(Cl)cc1Cl (centres unmarked) [Hexaconazole]
[1]
  AUC score in Judson 2015: 0.00822

## CCC(C)(C)c1ccc(O)c(C(C)(C)CC)c1 [2,4-Bis(2-methylbutan-2-yl)phenol]
[1]
  AUC score in Judson 2015: 0.00113

## CC/C(=C(\c1ccccc1)c1ccc(OCCN(C)C)cc1)c1ccccc1 [Tamoxifen citrate]
[1]
  AUC score in Judson 2015: 0.546

## O=C(O)c1ccccc1O.Oc1cccc2cccnc12 [8-Quinolinol Salicylic acid (1:1)]
[2]
  hepg2_flor_auc: 0
  hepg2_flor_time: 48
  hepg2_flor_bin: inactive
  hepg2_flor_emax_0: 0
  hepg2_flor_pod_0: -4.417
  hepg2_flor_wauc_0: 0
[2]; time point 8
  hepg2_flor_emax_8: 0
  hepg2_flor_pod_8: -4.417
  hepg2_flor_wauc_8: 0
[2]; time point 16
  hepg2_flor_emax_16: 0
  hepg2_flor_pod_16: -4.417
  hepg2_flor_wauc_16: 0
[2]; time point 24
  hepg2_flor_emax_24: 0
  hepg2_flor_pod_24: -4.417
  hepg2_flor_wauc_24: 0
[2]; time point 32
  hepg2_flor_emax_32: 0
  hepg2_flor_pod_32: -4.417
  hepg2_flor_wauc_32: 0
[2]; time point 40
  hepg2_flor_emax_40: 0
  hepg2_flor_pod_40: -4.417
  hepg2_flor_wauc_40: 0
[3]
  hek293_glo_auc: 0
  hek293_glo_time: 48
  hek293_glo_bin: inactive
  hek293_glo_emax_0: 0
  hek293_glo_pod_0: -4.417
  hek293_glo_wauc_0: 0
[3]; time point 8
  hek293_glo_emax_8: 0
  hek293_glo_pod_8: -4.417
  hek293_glo_wauc_8: 0
[3]; time point 16
  hek293_glo_emax_16: 0
  hek293_glo_pod_16: -4.417
  hek293_glo_wauc_16: 0
[3]; time point 24
  hek293_glo_emax_24: 0
  hek293_glo_pod_24: -4.417
  hek293_glo_wauc_24: 0
[3]; time point 32
  hek293_glo_emax_32: 0
  hek293_glo_pod_32: -4.417
  hek293_glo_wauc_32: 0
[3]; time point 40
  hek293_glo_emax_40: 0
  hek293_glo_pod_40: -4.417
  hek293_glo_wauc_40: 0
[4]
  hek293_flor_auc: 0
  hek293_flor_time: 48
  hek293_flor_bin: inactive
  hek293_flor_emax_0: 0
  hek293_flor_pod_0: -4.417
  hek293_flor_wauc_0: 0
  hek293_flor_emax_8: 0
  hek293_flor_pod_8: -4.417
  hek293_flor_wauc_8: 0
[4]; time point 16
  hek293_flor_emax_16: 0
  hek293_flor_pod_16: -4.417
  hek293_flor_wauc_16: 0
[4]; time point 24
  hek293_flor_emax_24: 0
  hek293_flor_pod_24: -4.417
  hek293_flor_wauc_24: 0
[4]; time point 32
  hek293_flor_emax_32: 0
  hek293_flor_pod_32: -4.417
  hek293_flor_wauc_32: 0
[4]; time point 40
  hek293_flor_emax_40: 0
  hek293_flor_pod_40: -4.417
  hek293_flor_wauc_40: 0
[5]
  hepg2_glo_auc: 0
  hepg2_glo_time: 48
  hepg2_glo_bin: inactive
  hepg2_glo_emax_0: 0
  hepg2_glo_pod_0: -4.417
  hepg2_glo_wauc_0: 0
[5]; time point 8
  hepg2_glo_emax_8: 0
  hepg2_glo_pod_8: -4.417
  hepg2_glo_wauc_8: 0
[5]; time point 16
  hepg2_glo_emax_16: 0
  hepg2_glo_pod_16: -4.417
  hepg2_glo_wauc_16: 0
[5]; time point 24
  hepg2_glo_emax_24: 0
  hepg2_glo_pod_24: -4.417
  hepg2_glo_wauc_24: 0
[5]; time point 32
  hepg2_glo_emax_32: 0
  hepg2_glo_pod_32: -4.417
  hepg2_glo_wauc_32: 0
[5]; time point 40
  hepg2_glo_emax_40: 0
  hepg2_glo_pod_40: -4.417
  hepg2_glo_wauc_40: 0
[6]
  information: 0

## Clc1ccccc1C(c1ccccc1)(c1ccccc1)n1ccnc1 [Clotrimazole, reference compound]
[1]
  AUC score in Judson 2015: 0.00844

## CN(C)c1ccc(C(=C2C=CC(=[N+](C)C)C=C2)c2ccccc2)cc1.CN(C)c1ccc(C(=C2C=CC(=[N+](C)C)C=C2)c2ccccc2)cc1.O=C(O)C(=O)O.O=C([O-])C(=O)O.O=C([O-])C(=O)O [Malachite green oxalate]
[2]
  hepg2_flor_auc: 1.813
  hepg2_flor_time: 8
  hepg2_flor_bin: cv_26 (cv_26: 8 < time < 16)
  hepg2_flor_emax_0: 0
  hepg2_flor_pod_0: -4.417
  hepg2_flor_wauc_0: 0
[2]; time point 8
  hepg2_flor_emax_8: 44.8674
  hepg2_flor_pod_8: -4.571
  hepg2_flor_wauc_8: 0.868
[2]; [7]
  hepg2_flor_ec50_8: -4.591
[2]; time point 16
  hepg2_flor_emax_16: 142.047
  hepg2_flor_pod_16: -5.554
  hepg2_flor_wauc_16: 1.871
[2]; [8]
  hepg2_flor_ec50_16: -4.76
[2]; time point 24
  hepg2_flor_emax_24: 168.072
  hepg2_flor_pod_24: -5.707
  hepg2_flor_wauc_24: 2.035
[2]; [9]
  hepg2_flor_ec50_24: -5.438
[2]; time point 32
  hepg2_flor_emax_32: 231.16
  hepg2_flor_pod_32: -5.746
  hepg2_flor_wauc_32: 2.119
[2]; [10]
  hepg2_flor_ec50_32: -5.498
[2]; time point 40
  hepg2_flor_emax_40: 275.23
  hepg2_flor_pod_40: -6.016
  hepg2_flor_wauc_40: 2.222
[2]; [11]
  hepg2_flor_ec50_40: -5.565
[3]
  hek293_glo_auc: 1.897
  hek293_glo_time: 8
  hek293_glo_bin: cv_26 (cv_26: 8 < time < 16)
  hek293_glo_emax_0: 0
  hek293_glo_pod_0: -4.417
  hek293_glo_wauc_0: 0
[3]; time point 8
  hek293_glo_emax_8: -47.964
  hek293_glo_pod_8: -5.267
  hek293_glo_wauc_8: 1.621
[3]; [7]
  hek293_glo_ec50_8: -5.275
[3]; time point 16
  hek293_glo_emax_16: -74.3913
  hek293_glo_pod_16: -6.896
  hek293_glo_wauc_16: 2.239
[3]; [8]
  hek293_glo_ec50_16: -5.71
[3]; time point 24
  hek293_glo_emax_24: -84.5759
  hek293_glo_pod_24: -6.8943
  hek293_glo_wauc_24: 2.321
[3]; [9]
  hek293_glo_ec50_24: -6.073
[3]; time point 32
  hek293_glo_emax_32: -91.2313
  hek293_glo_pod_32: -6.927
  hek293_glo_wauc_32: 2.36
[3]; [10]
  hek293_glo_ec50_32: -6.025
[3]; time point 40
  hek293_glo_emax_40: -94.0423
  hek293_glo_pod_40: -6.941
  hek293_glo_wauc_40: 2.382
[3]; [11]
  hek293_glo_ec50_40: -6.071
[4]
  hek293_flor_auc: 1.491
  hek293_flor_time: 24
  hek293_flor_bin: cv_46 (cv_46: 24 < time < 32)
  hek293_flor_emax_0: 0
  hek293_flor_pod_0: -4.417
  hek293_flor_wauc_0: 0
  hek293_flor_emax_8: 0
  hek293_flor_pod_8: -4.417
  hek293_flor_wauc_8: 0
[4]; time point 16
  hek293_flor_emax_16: 25.2441
  hek293_flor_pod_16: -4.42
  hek293_flor_wauc_16: 0.5325
[4]; [8]
  hek293_flor_ec50_16: -4.591
[4]; time point 24
  hek293_flor_emax_24: 72.6532
  hek293_flor_pod_24: -4.806
  hek293_flor_wauc_24: 1.057
[4]; [9]
  hek293_flor_ec50_24: -4.702
[4]; time point 32
  hek293_flor_emax_32: 99.3082
  hek293_flor_pod_32: -5.521
  hek293_flor_wauc_32: 1.407
[4]; [10]
  hek293_flor_ec50_32: -4.895
[4]; time point 40
  hek293_flor_emax_40: 135.684
  hek293_flor_pod_40: -5.642
  hek293_flor_wauc_40: 1.5
[4]; [11]
  hek293_flor_ec50_40: -5.028
[5]
  hepg2_glo_auc: 1.838
  hepg2_glo_time: 0
  hepg2_glo_bin: cv_16 (cv_16: 0 < time < 8)
  hepg2_glo_emax_0: 0
  hepg2_glo_pod_0: -4.417
  hepg2_glo_wauc_0: 0
[5]; time point 8
  hepg2_glo_emax_8: -63.2822
  hepg2_glo_pod_8: -5.131
  hepg2_glo_wauc_8: 1.514
[5]; [7]
  hepg2_glo_ec50_8: -4.735
[5]; time point 16
  hepg2_glo_emax_16: -91.4856
  hepg2_glo_pod_16: -5.607
  hepg2_glo_wauc_16: 1.892
[5]; [8]
  hepg2_glo_ec50_16: -5.318
[5]; time point 24
  hepg2_glo_emax_24: -91.3465
  hepg2_glo_pod_24: -5.6539
  hepg2_glo_wauc_24: 1.966
[5]; [9]
  hepg2_glo_ec50_24: -5.521
[5]; time point 32
  hepg2_glo_emax_32: -92.3669
  hepg2_glo_pod_32: -5.816
  hepg2_glo_wauc_32: 2.064
[5]; [10]
  hepg2_glo_ec50_32: -5.627
[5]; time point 40
  hepg2_glo_emax_40: -91.0249
  hepg2_glo_pod_40: -5.846
  hepg2_glo_wauc_40: 2.087
[5]; [11]
  hepg2_glo_ec50_40: -5.656
[6]; any activity in any time point/assay
  information: 1

## CC(C)(C)c1ccc(O)c(C(C)(C)C)c1 [2,4-Di-tert-butylphenol]
[1]
  AUC score in Judson 2015: 0

## O=C(c1ccc(OCCN2CCCCC2)cc1)c1c(-c2ccc(O)cc2)sc2cc(O)ccc12 [Raloxifene hydrochloride]
[1]
  AUC score in Judson 2015: 0.671

## CC/C(=C(\c1ccc(O)cc1)c1ccc(OCCN(C)C)cc1)c1ccccc1 [4-Hydroxytamoxifen]
[1]
  AUC score in Judson 2015: 0.686

## CC[C@H](c1ccc(O)cc1)[C@@H](CC)c1ccc(O)cc1 [meso-Hexestrol]
[1]
  AUC score in Judson 2015: 0
